Data taken from the kinase profiling compilation of Christmann-Franck et al. (2016).
Several values for one entry are separate records, joined by “and”; a condition that tells them apart may be missing. Equal values may be shown once.

Assays:
Experiment in all cases: radiometric filter-binding kinase assay, Kinase HotSpot
Conditions in all cases: compound 0.5 µM; ATP 10 µM
[1] = biological target: PLK3 (human) (UniProt Q9H4B4)
[2] = biological target: EPHA8 (human) (UniProt P29322)
[3] = biological target: LYN (human) (UniProt P07948)
[4] = biological target: MAPK12 (human) (UniProt P53778)
[5] = biological target: MAP3K3 (human) (UniProt Q99759)
[6] = biological target: CSNK1D (human) (UniProt P48730)
[7] = biological target: IGF1R (human) (UniProt P08069)
[8] = biological target: STK16 (human) (UniProt O75716)
[9] = biological target: EPHA5 (human) (UniProt P54756)
[10] = biological target: MAPKAPK5 (human) (UniProt Q8IW41)
[11] = biological target: IKBKB (human) (UniProt O14920)
[12] = biological target: FYN (human) (UniProt P06241)
[13] = biological target: NTRK1 (human) (UniProt P04629)
[14] = biological target: SGK3 (human) (UniProt Q96BR1)
[15] = biological target: CAMK1G (human) (UniProt Q96NX5)
[16] = biological target: CSNK1G3 (human) (UniProt Q9Y6M4)
[17] = biological target: EPHA6 (human) (UniProt Q9UF33)
[18] = biological target: CSNK1G1 (human) (UniProt Q9HCP0)
[19] = biological target: STK24 (human) (UniProt Q9Y6E0)
[20] = biological target: EPHB3 (human) (UniProt P54753)
[21] = biological target: MYLK (human) (UniProt Q15746)
[22] = biological target: PDGFRB (human) (UniProt P09619)
[23] = biological target: MAPK14 (human) (UniProt Q16539)
[24] = biological target: MAP4K4 (human) (UniProt O95819)
[25] = biological target: FGFR3 (human) (UniProt P22607)
[26] = biological target: STK4 (human) (UniProt Q13043)
[27] = biological target: CAMK2D (human) (UniProt Q13557)
[28] = biological target: CAMK2B (human) (UniProt Q13554)
[29] = biological target: FER (human) (UniProt P16591)
[30] = biological target: WEE1 (human) (UniProt P30291)
[31] = biological target: RAF1 (human) (UniProt P04049)
[32] = biological target: FES (human) (UniProt P07332)
[33] = biological target: CDK2 CCNA2 (human) (UniProt P24941+P20248)
[34] = biological target: CDC42BPB (human) (UniProt Q9Y5S2)
[35] = biological target: HIPK2 (human) (UniProt Q9H2X6)
[36] = biological target: RPS6KB2 (human) (UniProt Q9UBS0)
[37] = biological target: TSSK1B (human) (UniProt Q9BXA7)
[38] = biological target: TBK1 (human) (UniProt Q9UHD2)
[39] = biological target: CDK2 CCNE1 (human) (UniProt P24941+P24864)
[40] = biological target: ZAP70 (human) (UniProt P43403)
[41] = biological target: CAMK1D (human) (UniProt Q8IU85)
[42] = biological target: TTK (human) (UniProt P33981)

LYN (human), sequence (P07948 whole entry, looked up): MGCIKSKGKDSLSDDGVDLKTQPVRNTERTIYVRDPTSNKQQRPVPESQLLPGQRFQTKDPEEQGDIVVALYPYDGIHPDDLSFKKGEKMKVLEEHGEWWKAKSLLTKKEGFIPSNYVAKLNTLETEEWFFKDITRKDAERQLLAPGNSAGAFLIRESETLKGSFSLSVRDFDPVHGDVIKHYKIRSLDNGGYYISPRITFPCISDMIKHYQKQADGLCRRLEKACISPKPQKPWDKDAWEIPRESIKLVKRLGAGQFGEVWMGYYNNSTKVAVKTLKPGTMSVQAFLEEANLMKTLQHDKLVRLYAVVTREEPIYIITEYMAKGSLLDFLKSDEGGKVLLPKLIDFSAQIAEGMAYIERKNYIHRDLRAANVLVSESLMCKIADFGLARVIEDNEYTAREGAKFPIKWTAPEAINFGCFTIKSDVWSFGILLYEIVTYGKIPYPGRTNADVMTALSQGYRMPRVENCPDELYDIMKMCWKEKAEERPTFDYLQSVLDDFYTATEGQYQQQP
EPHB3 (human), sequence (P54753 whole entry, looked up): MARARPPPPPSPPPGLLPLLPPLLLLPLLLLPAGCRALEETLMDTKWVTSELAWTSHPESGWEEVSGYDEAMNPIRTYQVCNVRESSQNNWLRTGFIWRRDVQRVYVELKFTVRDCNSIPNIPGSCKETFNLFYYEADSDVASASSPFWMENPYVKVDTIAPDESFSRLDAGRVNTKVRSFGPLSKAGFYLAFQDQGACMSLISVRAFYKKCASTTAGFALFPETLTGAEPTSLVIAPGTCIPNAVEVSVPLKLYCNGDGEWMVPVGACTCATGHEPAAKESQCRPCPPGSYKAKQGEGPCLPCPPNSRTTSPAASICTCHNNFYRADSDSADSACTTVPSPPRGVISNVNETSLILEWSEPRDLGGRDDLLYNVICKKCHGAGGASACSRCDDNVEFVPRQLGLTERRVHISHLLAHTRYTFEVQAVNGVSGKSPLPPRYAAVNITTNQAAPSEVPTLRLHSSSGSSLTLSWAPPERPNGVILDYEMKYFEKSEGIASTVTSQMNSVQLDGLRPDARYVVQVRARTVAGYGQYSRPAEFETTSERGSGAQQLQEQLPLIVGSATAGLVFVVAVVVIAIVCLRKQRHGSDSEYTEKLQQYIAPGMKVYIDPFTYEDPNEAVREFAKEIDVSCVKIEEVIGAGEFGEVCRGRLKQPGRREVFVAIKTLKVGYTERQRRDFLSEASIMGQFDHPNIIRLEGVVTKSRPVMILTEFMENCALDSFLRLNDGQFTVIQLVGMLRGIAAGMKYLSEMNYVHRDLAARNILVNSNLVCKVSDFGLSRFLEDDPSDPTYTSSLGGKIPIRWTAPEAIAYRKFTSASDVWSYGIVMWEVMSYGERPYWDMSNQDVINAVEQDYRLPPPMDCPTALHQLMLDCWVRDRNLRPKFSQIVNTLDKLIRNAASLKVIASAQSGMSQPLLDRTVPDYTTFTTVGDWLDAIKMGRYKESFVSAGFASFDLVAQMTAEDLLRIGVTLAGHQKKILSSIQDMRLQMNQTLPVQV
EPHA8 (human), sequence (P29322 whole entry, looked up): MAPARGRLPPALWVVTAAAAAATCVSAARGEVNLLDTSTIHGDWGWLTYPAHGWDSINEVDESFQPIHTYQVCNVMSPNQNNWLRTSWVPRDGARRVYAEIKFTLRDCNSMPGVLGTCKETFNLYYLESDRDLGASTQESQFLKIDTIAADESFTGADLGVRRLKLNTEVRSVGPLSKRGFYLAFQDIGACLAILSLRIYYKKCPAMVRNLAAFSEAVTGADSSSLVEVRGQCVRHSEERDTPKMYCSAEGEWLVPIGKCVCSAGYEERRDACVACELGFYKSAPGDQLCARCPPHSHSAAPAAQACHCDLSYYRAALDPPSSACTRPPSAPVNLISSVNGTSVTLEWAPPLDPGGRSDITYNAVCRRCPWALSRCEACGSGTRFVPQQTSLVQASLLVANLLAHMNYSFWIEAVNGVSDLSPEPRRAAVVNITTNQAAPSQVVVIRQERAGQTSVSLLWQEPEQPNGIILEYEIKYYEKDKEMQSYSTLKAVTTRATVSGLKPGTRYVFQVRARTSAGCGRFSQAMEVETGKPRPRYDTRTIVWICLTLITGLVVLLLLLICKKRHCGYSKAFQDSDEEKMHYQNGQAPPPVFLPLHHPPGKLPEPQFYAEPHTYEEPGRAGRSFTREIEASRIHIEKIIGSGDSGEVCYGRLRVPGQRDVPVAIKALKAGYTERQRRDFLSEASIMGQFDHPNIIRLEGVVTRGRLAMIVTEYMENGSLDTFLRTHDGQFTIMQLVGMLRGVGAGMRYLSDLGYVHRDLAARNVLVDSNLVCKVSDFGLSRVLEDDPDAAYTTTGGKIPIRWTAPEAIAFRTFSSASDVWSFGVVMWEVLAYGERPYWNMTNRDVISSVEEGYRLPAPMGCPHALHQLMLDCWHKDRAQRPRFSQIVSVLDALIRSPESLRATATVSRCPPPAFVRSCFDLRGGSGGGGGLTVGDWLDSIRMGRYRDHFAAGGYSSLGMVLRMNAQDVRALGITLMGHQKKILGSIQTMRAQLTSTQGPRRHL
SGK3 (human), sequence (Q96BR1 whole entry, looked up): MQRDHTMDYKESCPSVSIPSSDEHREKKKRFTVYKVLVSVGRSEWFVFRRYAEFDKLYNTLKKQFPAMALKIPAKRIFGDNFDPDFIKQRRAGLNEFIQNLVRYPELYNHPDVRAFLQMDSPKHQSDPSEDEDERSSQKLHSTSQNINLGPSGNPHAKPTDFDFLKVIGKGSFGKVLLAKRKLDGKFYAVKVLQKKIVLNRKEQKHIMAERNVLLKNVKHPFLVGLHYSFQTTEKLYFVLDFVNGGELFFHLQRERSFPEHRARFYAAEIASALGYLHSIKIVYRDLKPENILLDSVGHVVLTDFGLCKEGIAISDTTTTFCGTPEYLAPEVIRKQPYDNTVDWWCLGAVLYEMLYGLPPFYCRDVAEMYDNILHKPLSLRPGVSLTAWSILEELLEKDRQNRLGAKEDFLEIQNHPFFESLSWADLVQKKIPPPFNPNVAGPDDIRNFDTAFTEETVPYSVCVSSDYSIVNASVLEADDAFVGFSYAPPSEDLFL
RPS6KB2 (human), sequence (Q9UBS0 whole entry, looked up): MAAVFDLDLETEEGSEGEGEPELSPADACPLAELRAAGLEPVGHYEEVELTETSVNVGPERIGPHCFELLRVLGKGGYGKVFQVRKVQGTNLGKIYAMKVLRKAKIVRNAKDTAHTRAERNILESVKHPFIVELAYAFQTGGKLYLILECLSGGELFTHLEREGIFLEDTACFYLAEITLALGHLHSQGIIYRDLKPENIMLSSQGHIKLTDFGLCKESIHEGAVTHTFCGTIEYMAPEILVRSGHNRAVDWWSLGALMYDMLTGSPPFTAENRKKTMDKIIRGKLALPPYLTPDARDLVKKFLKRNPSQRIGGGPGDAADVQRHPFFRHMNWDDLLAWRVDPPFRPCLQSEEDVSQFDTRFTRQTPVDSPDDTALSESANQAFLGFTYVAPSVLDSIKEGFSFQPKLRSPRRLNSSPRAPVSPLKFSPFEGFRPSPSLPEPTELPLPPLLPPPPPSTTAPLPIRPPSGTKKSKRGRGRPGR
IKBKB (human), sequence (O14920 whole entry, looked up): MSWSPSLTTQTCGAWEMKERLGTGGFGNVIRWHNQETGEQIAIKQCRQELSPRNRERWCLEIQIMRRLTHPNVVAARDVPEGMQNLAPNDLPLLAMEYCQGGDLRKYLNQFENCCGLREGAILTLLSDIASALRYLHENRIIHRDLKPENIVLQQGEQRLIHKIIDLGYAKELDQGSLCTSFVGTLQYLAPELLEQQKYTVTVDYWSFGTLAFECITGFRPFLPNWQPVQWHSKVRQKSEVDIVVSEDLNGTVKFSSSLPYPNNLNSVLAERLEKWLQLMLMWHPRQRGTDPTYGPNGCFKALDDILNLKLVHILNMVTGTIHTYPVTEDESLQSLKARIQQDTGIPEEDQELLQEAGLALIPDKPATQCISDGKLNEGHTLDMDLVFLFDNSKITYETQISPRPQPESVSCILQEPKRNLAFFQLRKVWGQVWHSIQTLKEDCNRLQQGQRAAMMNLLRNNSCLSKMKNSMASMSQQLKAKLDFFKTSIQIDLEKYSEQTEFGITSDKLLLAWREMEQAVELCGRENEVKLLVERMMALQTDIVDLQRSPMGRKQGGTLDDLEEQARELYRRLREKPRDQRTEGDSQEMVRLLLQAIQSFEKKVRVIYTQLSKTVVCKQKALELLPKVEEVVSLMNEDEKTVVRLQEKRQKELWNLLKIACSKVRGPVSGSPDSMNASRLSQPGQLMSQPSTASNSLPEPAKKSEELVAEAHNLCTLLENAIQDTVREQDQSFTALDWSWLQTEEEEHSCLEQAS
MAPK14 (human), sequence (Q16539 whole entry, looked up): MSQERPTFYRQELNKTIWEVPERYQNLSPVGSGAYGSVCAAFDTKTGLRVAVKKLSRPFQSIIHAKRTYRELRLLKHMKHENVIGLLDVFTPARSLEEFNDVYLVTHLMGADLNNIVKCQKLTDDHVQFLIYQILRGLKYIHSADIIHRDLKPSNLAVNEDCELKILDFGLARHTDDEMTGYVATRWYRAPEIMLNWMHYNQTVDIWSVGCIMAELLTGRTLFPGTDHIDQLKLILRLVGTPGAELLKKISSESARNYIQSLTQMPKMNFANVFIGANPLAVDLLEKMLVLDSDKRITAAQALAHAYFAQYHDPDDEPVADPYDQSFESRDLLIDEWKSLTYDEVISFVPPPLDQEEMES
CSNK1D (human), sequence (P48730 whole entry, looked up): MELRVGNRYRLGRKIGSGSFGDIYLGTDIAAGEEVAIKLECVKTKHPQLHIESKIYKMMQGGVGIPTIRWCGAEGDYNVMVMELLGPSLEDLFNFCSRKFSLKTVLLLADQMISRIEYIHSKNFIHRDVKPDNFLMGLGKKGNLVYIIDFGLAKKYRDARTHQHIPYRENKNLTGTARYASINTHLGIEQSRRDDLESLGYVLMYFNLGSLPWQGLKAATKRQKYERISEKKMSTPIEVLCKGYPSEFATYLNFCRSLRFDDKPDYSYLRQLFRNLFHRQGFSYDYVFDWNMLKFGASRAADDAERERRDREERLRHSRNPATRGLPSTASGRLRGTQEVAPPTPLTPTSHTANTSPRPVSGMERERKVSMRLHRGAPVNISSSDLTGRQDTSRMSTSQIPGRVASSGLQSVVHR

In the case of `O=C1NC(=O)C(c2cn(CCCn3ccnc3)c3ccccc23)=C1Nc1ccccc1`, the residual activity [1] is reported as 99.8%, the residual activity [2] is reported as 104% and the residual activity [3] is reported as 103% and 96.4%. It also gave a residual activity [4] of 102%, a residual activity [5] of 95.8% and a residual activity [6] of 102%. For the same compound, the residual activity [7] was 95.3%, the residual activity [8] was 110% and the residual activity [9] was 96.1%. The residual activity [10] was 96.4%, the residual activity [11] was 110% and the residual activity [12] was 102%. For the same compound, the residual activity [13] was 104%, the residual activity [14] was 89.9% and the residual activity [15] was 84.6%. The residual activity [16] was 110%, the residual activity [17] was 106% and the residual activity [18] was 95%. For the same compound, the residual activity [19] was 51.7%, the residual activity [20] was 99.7% and the residual activity [21] was 81.6%. For the same compound, the residual activity [22] was 76.5%, the residual activity [23] was 88.3% and the residual activity [24] was 64%. It also gave a residual activity [25] of 100%, a residual activity [26] of 40.9% and a residual activity [27] of 85.4%. The residual activity [28] was 93.8%, the residual activity [29] was 56.1% and the residual activity [30] was 95.8%. For the same compound, the residual activity [31] was 105%, the residual activity [32] was 103% and the residual activity [33] was 83.4%. For the same compound, the residual activity [34] was 105%, the residual activity [35] was 87.6% and the residual activity [36] was 86.1%. It also gave a residual activity [37] of 102%, a residual activity [38] of 48% and a residual activity [39] of 81.8%. The residual activity [40] was 104%, the residual activity [41] was 97.4% and the residual activity [42] was 121%.
For `N#C/C(=C(/N)Sc1ccc(N)cc1)c1ccccc1C(F)(F)F`, the residual activity [1] was 96.9%, the residual activity [2] was 94.1% and the residual activity [3] was 107% and 98.5%. For the same compound, the residual activity [4] was 97.4%, the residual activity [5] was 97.7% and the residual activity [6] was 106%. It also gave a residual activity [7] of 97.4%, a residual activity [8] of 98.4% and a residual activity [9] of 116%. It also gave a residual activity [10] of 89.9%, a residual activity [11] of 100% and a residual activity [12] of 97.1%. For the same compound, the residual activity [13] was 109%, the residual activity [14] was 105% and the residual activity [15] was 96.6%. It also gave a residual activity [16] of 103%, a residual activity [17] of 92.3% and a residual activity [18] of 89%. For the same compound, the residual activity [19] was 89.3%, the residual activity [20] was 96.7% and the residual activity [21] was 94.9%. For the same compound, the residual activity [22] was 103%, the residual activity [23] was 96% and the residual activity [24] was 93.4%. For the same compound, the residual activity [25] was 98.5%, the residual activity [26] was 89.7% and the residual activity [27] was 93.4%. For the same compound, the residual activity [28] was 93.5%, the residual activity [29] was 105% and the residual activity [30] was 73.8%. For the same compound, the residual activity [31] was 103%, the residual activity [32] was 98% and the residual activity [33] was 95.9%. The residual activity [34] was 104%, the residual activity [35] was 115% and the residual activity [36] was 105%. For the same compound, the residual activity [37] was 103%, the residual activity [38] was 98.1% and the residual activity [39] was 95.4%. It also gave a residual activity [40] of 102%, a residual activity [41] of 129% and a residual activity [42] of 93.6%.
